Active and inactive are the calls of the source. The calls are words filed in the database; no cut-off is given here.
Experiments:
[1] = system: Leishmania donovani; experiment: Antileishmanial activity against promastigote stage of Leishmania donovani MHOM/IN/80/Dd8 harboring luciferase reporter gene at 50 uM after 48 hrs by Steady-Glo luminescence assay relative to control; format: functional; settings: MHOM/IN/80/Dd8, 48 h
[2] = system: Leishmania donovani; experiment: Antileishmanial activity against Leishmania donovani MHOM/IN/80/Dd8 amastigotes harboring luciferase reporter gene infected in mouse J774 cells at 25 uM after 72 hrs by Steady-Glo luminescence assay relative to control; format: functional; settings: MHOM/IN/80/Dd8, J774, 72 h
[3] = system: Leishmania donovani; experiment: Antileishmanial activity against Leishmania donovani MHOM/IN/80/Dd8 amastigotes harboring luciferase reporter gene infected in mouse J774 cells at 50 uM after 72 hrs by Steady-Glo luminescence assay relative to control; format: functional; settings: MHOM/IN/80/Dd8, J774, 72 h
[4] = system: Leishmania donovani; experiment: Antileishmanial activity against Leishmania donovani MHOM/IN/80/Dd8 amastigotes harboring luciferase reporter gene infected in mouse J774 cells after 48 hrs by Giemsa staining-based microscopic assay; format: functional, organism-based; settings: MHOM/IN/80/Dd8, J774, 48 h
[5] = Cytotoxicity against African green monkey Vero cells assessed as reduction in cell viability after 72 hrs by MTT assay; format: cell-based; settings: chlorocebus sabaeus
[6] = Selectivity index, ratio of CC50 for mouse J774 cells to IC50 for antileishmanial activity against Leishmania donovani MHOM/IN/80/Dd8 amastigotes harboring luciferase reporter gene; format: toxicity; settings: read-out: Ratio CC50/IC50
[7] = Cytotoxicity against BALB/c mouse splenocytes assessed as cell viability at 100 uM after 72 hrs by MTT assay relative to control; format: cell-based, Splenocyte; settings: read-out: Activity
[8] = Cytotoxicity against BALB/c mouse splenocytes assessed as cell viability at 200 uM after 72 hrs by MTT assay relative to control; format: cell-based, Splenocyte; settings: read-out: Activity
[9] = Stability in simulated intestinal fluid at 10 ug/ml measured after 2 hrs by UPLC analysis relative to control; format: ADME; settings: read-out: Stability
[10] = Half life in mouse liver microsomes after 1 hr in presence of NADPH by UPLC analysis; format: ADME, Microsome
[11] = Intrinsic clearance in mouse liver microsomes after 1 hr in presence of NADPH by UPLC analysis; format: ADME, Microsome
[12] = system: Leishmania donovani; experiment: (§1) Antileishmanial activity against Leishmania donovani promastigotes infected in BALB/c mouse assessed as inhibition in parasite burden in spleen at 50 mg/kg, ip administered for 7 days starting at 15 days post-infection and measured after 1 week post last dose Giemsa staining-based assay relative to control; format: functional
[13] = system: Leishmania donovani; experiment: as §1, with “100” for “50”; format: functional
[14] = Toxicity in BALB/c mouse infected with Leishmania donovani promastigotes assessed as survival at 12.5 to 200 mg/kg, ip administered for 7 days starting at 15 days post-infection; format: organism-based; settings: in vivo
[15] = Toxicity in BALB/c mouse infected with Leishmania donovani promastigotes assessed as serum AST level at 50 mg/kg , ip measured after 3 to 7 weeks (reference value: 114 U/L); format: organism-based; settings: in vivo
[16] = Toxicity in golden hamster infected with Leishmania donovani amastigotes assessed as reduction in serum AST level at 50 mg/kg , ip and measured after 10 weeks post infection (reference value: 113 U/L); format: organism-based, Mesocricetus auratus; settings: in vivo, 1680 h
[17] = system: J774; experiment: Immunostimulatory activity in mouse J774 cells infected with Leishmania donovani promastigotes assessed as reduction in IL-10 cytokine production at 50 uM after 48 hrs by ELISA; format: functional, cell-based
[18] = system: Mus musculus; experiment: Immunostimulatory activity in BALB/c mouse infected with Leishmania donovani promastigotes assessed as induction of IL-2 cytokine production at 50 mg/kg administered for 5 days starting at 15 days post infection and measured after 3 to 7 weeks by ELISA; format: functional, organism-based
[19] = system: Mus musculus; experiment: Immunostimulatory activity in BALB/c mouse infected with Leishmania donovani promastigotes assessed as induction of TNF-alpha cytokine production at 50 mg/kg administered for 5 days starting at 15 days post infection and measured after 3 to 7 weeks by ELISA; format: functional, organism-based
[20] = system: Leishmania donovani; experiment: Induction of membrane depolarization in Leishmania donovani promastigotes assessed as increase in fluorescence at MIC by DiBAC4 dye based flow cytometry analysis; format: functional, organism-based; settings: TDE = time-dependent effect
[21] = system: Leishmania donovani; experiment: Induction of membrane depolarization in Leishmania donovani promastigotes assessed as increase in fluorescence at IC50 by DiBAC4 dye based flow cytometry analysis; format: functional, organism-based; settings: TDE = time-dependent effect
[22] = system: Leishmania donovani; experiment: Induction of membrane depolarization in Leishmania donovani promastigotes assessed as increase in fluorescence at 50 uM by DiBAC4 dye based flow cytometry analysis relative to relative to 0.1% Triton X-100; format: functional
[23] = system: Leishmania donovani; experiment: Induction of mitochondrial dysfunction in Leishmania donovani promastigotes assessed as reduction in mitochondrial membrane potential at 50 uM after 24 hrs by JC-1 staining-based flow cytometric analysis (reference value: 7.73%); format: functional; parameters: scale not given: the % may be the effect or the level left
[24] = system: Leishmania donovani; experiment: Induction of mitochondrial dysfunction in Leishmania donovani promastigotes assessed as reduction in mitochondrial membrane potential at 50 uM after 48 hrs by JC-1 staining-based flow cytometric analysis (reference value: 7.73%); format: functional; parameters: scale not given: the % may be the effect or the level left
[25] = system: Leishmania donovani; experiment: Induction of mitochondrial membrane depolarization in Leishmania donovani promastigotes assessed as distorted mitochondria at 50 uM after 24 hrs by TEM analysis; format: functional, organism-based
[26] = system: Leishmania donovani; experiment: Induction of mitochondrial membrane depolarization in Leishmania donovani promastigotes assessed as swelling of mitochondria at 50 uM after 24 hrs by TEM analysis; format: functional, organism-based
[27] = system: Leishmania donovani; experiment: Induction of apoptosis in Leishmania donovani promastigotes assessed as necrotic cells at 50 uM after 24 hrs by Annexin-V/propidium iodide staining based flow cytometric method (reference value: 0.06%); format: functional
[28] = system: Leishmania donovani; experiment: Induction of apoptosis in Leishmania donovani promastigotes assessed as early apoptotic cells at 50 uM after 48 hrs by Annexin-V/propidium iodide staining based flow cytometric method (reference value: 5.79%); format: functional
[29] = system: Leishmania donovani; experiment: Induction of apoptosis in Leishmania donovani promastigotes assessed as necrotic cells at 50 uM after 48 hrs by Annexin-V/propidium iodide staining based flow cytometric method (reference value: 0.06%); format: functional
[30] = system: Leishmania donovani; experiment: Induction of ROS generation in Leishmania donovani promastigotes at 50 uM after 6 hrs by H2DCFDA probe based flow cytometry (reference value: 1.97%); format: functional
[31] = system: Leishmania donovani; experiment: Induction of ROS generation in Leishmania donovani promastigotes at 50 uM after 12 hrs by H2DCFDA probe based flow cytometry (reference value: 1.97%); format: functional
[32] = system: Leishmania donovani; experiment: Induction of ROS generation in Leishmania donovani promastigotes at 50 uM after 48 hrs by H2DCFDA probe based flow cytometry (reference value: 1.97%); format: functional
[33] = system: Leishmania donovani; experiment: Inhibition of ubiquinol cytochrome c reductase in Leishmania donovani promastigotes mitochondria at 50 uM using decylubiquinol as substrate in presence of cytochrome c relative to control
[34] = system: Leishmania donovani; experiment: Inhibition of […] in Leishmania donovani promastigotes mitochondria at 8.1 to 50 uM using decylubiquinol as substrate in presence of cytochrome c
[35] = Elimination rate constant in BALB/c mouse at 50 mg/kg, ip by HPLC analysis; format: ADME, organism-based; settings: in vivo
[36] = AUC(0 to 24 hrs) in BALB/c mouse at 50 mg/kg, ip by HPLC analysis; format: ADME, organism-based; parameters: dose 50 mg/kg, time < 24 hr, route intraperitoneal; settings: in vivo

CCOC(=O)C(C(=O)c1ccc(OC)cc1)C(NC(C)=O)c1cccc2ccccc12 (stereo unspecified)
inhibition at 50 µM [1]: 96.6%
inhibition at 25 µM [2]: 64.1%
inhibition at 50 µM [3]: 93.5%
IC50 [4]: 16.9 µM
CC50 at 72 h [5]: > 350 µM
selectivity ratio [6]: 23.4
viability at 72 h, 100 µM [7]: > 90.2%
viability at 72 h, 200 µM [8]: > 84.3%
remaining at 2 h, 10 ug/ml [9]: 80.2%
half-life [10]: 5.22 h
CLH [11]: 15 µL/min/mg
inhibition in vivo at 50 mg/kg [12]: 92.5%
inhibition in vivo at 100 mg/kg [13]: 92.8%
Activity [14]: Non-Toxic
Activity [15]: 54 to 298 IU/L
Activity [16]: 92 IU/L
Activity [17]: inactive
Activity [18]: inactive
Activity [19]: inactive
Activity [20]: Tde
Activity [21]: Tde
Activity [22]: <=78.5%
Activity [23]: 63.61%
Activity [24]: 67.97%
Activity [25]: Active
Activity [26]: Active
Activity [27]: 0.07%
Activity [28]: 17.8%
Activity [29]: 0.11%
Activity [30]: 30.3%
Activity [31]: 50.35%
Activity [32]: 65.74%
inhibition [33]: > 49%
inhibition [34]: inactive
k el [35]: 3.89e-05 s⁻¹
AUC(0-t) at 24 h [36]: 1280 ng·h/mL

Reference: ChEMBL document CHEMBL4406843, “β-Amino acid derivatives as mitochondrial complex III inhibitors of L. donovani: A promising chemotype targeting visceral leishmaniasis” (Eur J Med Chem, 2019)
